According to the NIST ThermoML archive (doi:10.1016/j.jct.2014.05.020):

Assay: excess molar enthalpy (molar enthalpy of mixing); xn = mol fraction of the nth substance listed
Details: Liquid, Flow calorimetry

C1CCCCC1 [cyclohexane] + c1ccccc1
excess molar enthalpy [kcal/mol]
Details | 348.2 K | 423.2 K
5000 kPa, x2 = 0.1189 | – | 0.0511
5000 kPa, x2 = 0.1765 | – | 0.072
5000 kPa, x2 = 0.233 | – | 0.0886
5000 kPa, x2 = 0.3424 | – | 0.113
5000 kPa, x2 = 0.4475 | 0.156 | 0.126
5000 kPa, x2 = 0.5485 | 0.159 | 0.128
5000 kPa, x2 = 0.6457 | 0.148 | 0.12
5000 kPa, x2 = 0.7392 | 0.126 | 0.103
5000 kPa, x2 = 0.8293 | 0.0938 | 0.0766
5000 kPa, x2 = 0.8732 | – | 0.0603
5000 kPa, x2 = 0.9162 | 0.0514 | 0.0425
5000 kPa, x2 = 0.9585 | 0.0264 | 0.0221
15000 kPa, x2 = 0.1188 | 0.0601 | 0.0502
15000 kPa, x2 = 0.1763 | – | 0.0712
15000 kPa, x2 = 0.2327 | 0.109 | 0.0873
15000 kPa, x2 = 0.3421 | 0.14 | 0.111
15000 kPa, x2 = 0.4471 | 0.156 | 0.124
15000 kPa, x2 = 0.5482 | 0.158 | 0.125
15000 kPa, x2 = 0.6454 | 0.148 | 0.117
15000 kPa, x2 = 0.7389 | 0.127 | 0.1
15000 kPa, x2 = 0.8291 | 0.0941 | 0.0743
15000 kPa, x2 = 0.873 | – | 0.0577
15000 kPa, x2 = 0.9161 | 0.0511 | 0.0403
15000 kPa, x2 = 0.9584 | 0.0259 | 0.0203
25000 kPa, x2 = 0.1187 | 0.0642 | 0.0506
25000 kPa, x2 = 0.1762 | 0.0901 | 0.0707
25000 kPa, x2 = 0.2325 | 0.112 | 0.0873
25000 kPa, x2 = 0.3418 | 0.143 | 0.112
25000 kPa, x2 = 0.4469 | 0.158 | 0.124
25000 kPa, x2 = 0.5479 | 0.16 | 0.125
25000 kPa, x2 = 0.6451 | 0.149 | 0.117
25000 kPa, x2 = 0.7388 | 0.127 | 0.0996
25000 kPa, x2 = 0.829 | 0.0933 | –
25000 kPa, x2 = 0.8729 | 0.0728 | –
25000 kPa, x2 = 0.916 | 0.0502 | –
25000 kPa, x2 = 0.9584 | 0.0242 | –
